In one assay the target is human A2a receptor (Homo sapiens (Human), UniProt P29274). The assay is described as follows: A2a competition binding assay using Scintillation Proximity technology. Here is the method:
(§1) Binding affinities of compounds of the invention for the human A2a receptor were determined in a competition binding assay using Scintillation Proximity technology. Thus, 1* μg, or preferably 0.25 μg of membranes from HEK293 cells expressing the human A2a receptor were incubated with a compound of the invention at concentrations ranging from 3000 nM to 0.15 nM in a reaction mixture containing also 0.5 nM of a tritiated form of 5-amino-7-[2-phenethyl]-2-(furan-2-yl)-7H-pyrazolo[4,3-e][1,2,4]triazolo[1,5-c]pyrimidine (the tritiated compound) and 25 μg of wheat germ agglutin-coated yttrium silicate SPA beads for one hour at room temperature with agitation. The beads were then allowed to settle to the bottom of the wells for 1 hr, after which the membrane-associated radioactivity was determined by scintillation counting in a TopCount microplate reader. Ki values were determined using the Cheng-Prusoff equation.
HEK293 cells expressing the human, rat, dog or monkey adenosine 2a receptor (Purchased from Perkin-Elmer # RBHA2AM400UA).
The Tritiated compound was prepared in-house by MRL Radiochemistry according to published methods.
Wheat germ agglutinin-coated yttrium silicate SPA beads (GE Healthcare #RPNQ0023). Dilute to 25 mg/ml in assay buffer.
Assay Buffer was prepared in house: Dulbecco's calcium and magnesium free phosphate buffered saline+10 mM MgCl2
Adenosine deaminase from calf intestine, 10 mg/2 ml (Roche #10 102 105 001).
A2a antagonist standard (9-chloro-1-(2-furanyl)-[1,2,4]triazolo1,5-c]quinazolin-5-amine from Tocris Bioscience)
Make eight 1:3 serial dilutions in 100% DMSO from a 3 mM compound stock
Transfer 50 nl of compound into a 384-well OptiPlate (Perkin Elmer).
Typically, final concentrations of compound used in the assay ranged from 3000 nM to 0.152 nM.
Dilute a solution of the Tritiated compound to 1.25 nM in assay buffer. This is a 2.5× solution. The final concentration in the assay is 0.5 nM. Calculate the concentration by counting two 5 μl aliquots.
Use *1 ug or preferrably 0.25 ug of membrane/well. Dilute membranes to 9.7 μg/ml in assay buffer. Treat with 20 ug/ml adenosine deaminase (ADA) for 15 minutes at room temperature to degrade endogenous adenosine.
Use 25 μg/well wheat germ agglutinin-coated yttrium silicate SPA beads.
Mix ADA-treated membranes and SPA beads together for 30 min prior to assay.
To the Perkin-Elmer Optiplate-384 containing the compound titration add 20 μl of 2.5× solution of the Tritiated compound and 30 μl of the membrane-bead mixture. Incubate for one hour at room temperature with agitation.
Include total binding (assay buffer+1% DMSO) and non-specific binding (CGS15943, 1 μM) wells.
Allow the beads to settle for one hour.
A curve fitting program (i.e., Prism, Activity Base, Chemcart) is used to determine the EC50. The Ki value is calculated using the Cheng-Prusoff equation. Ki=EC50/(1+(radioligand concentration/Kd))
Using the foregoing assay method, the Ki results were obtained using the compounds of the invention described in Tables IIIa, IIIb, and IV. Each example compound tested is reported in the following format: Example number: A2a Ki reported in nM. Thus, for example, the compound Ex-1 was determined to have an Ki using the above-described assay and calculations, of 10.0 nM.
In general terms: In a scintillation proximity assay essentially only radioactivity close to the scintillant gives light.

In the next assay the target is human A1 receptor (Homo sapiens (Human), UniProt P30542). Kind of assay: A1 competition binding assay using Scintillation Proximity technology; selectivity = A1 binding Ki / A2a binding Ki. The following applies: A1 binding Ki divided by A2a binding Ki. How it is done: as §1, with “A1” for “A2a”, “5” for “1* μg, or preferably 0.25 μg”, “CHO-K1” for “HEK293”, “0.7” for “0.5”, “8-Cyclopentyl-1,3-dipropylxanthine” for “5-amino-7-[2-phenethyl]-2-(furan-2-yl)-7H-pyrazolo[4,3-e][1,2,4]triazolo[1,5-c]pyrimidine”, “in a similar fashion described with A2a binding.” for “using the Cheng-Prusoff equation.”
human A1 receptor, sequence (P30542 whole entry): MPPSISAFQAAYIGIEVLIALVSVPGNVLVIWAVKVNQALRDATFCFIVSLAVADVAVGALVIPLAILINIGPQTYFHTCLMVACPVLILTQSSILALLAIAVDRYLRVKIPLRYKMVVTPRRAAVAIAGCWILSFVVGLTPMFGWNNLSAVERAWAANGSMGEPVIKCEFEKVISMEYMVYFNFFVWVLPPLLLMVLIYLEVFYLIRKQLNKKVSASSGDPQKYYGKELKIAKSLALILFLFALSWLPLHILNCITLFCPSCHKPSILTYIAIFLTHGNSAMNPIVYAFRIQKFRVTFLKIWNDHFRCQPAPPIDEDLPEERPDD
• Cells expressing the human, rat, dog or monkey adenosine 1 receptor (Purchased from Perkin-Elmer # ES-010-M400UA • [^3H]DPCPX (purchased from Perkin-Elmer NET-974, 8-cyclopentyl-1,3-dipropylxanthine, [dipropyl-2,3-^3H(N)]. • Wheatgerm agglutinin-coated yttrium silicate SPA beads (Purchased from GE Healthcare #RPNQ0023). Dilute to 25 mg/ml in assay buffer. Store at 4° C. • Assay Buffer—Dulbecco's phosphate buffered saline without calcium and without magnesium+10 mM MgCl2 • Adenosine deaminase from calf intestine, 10 mg/2 ml (Roche #10 102 105 001). • DMSO • DPCPX (A1 antagonist) from Tocris Bioscience Compound Dilution • Dilute compounds to 1 mM in 100% DMSO
Make serial dilutions as necessary (i.e., 1:10, 1:3) in 100% DMSO.
Dilute 1:20 into assay buffer (i.e. 3 ul into 57 ul buffer). This is a 5× solution in 5% DMSO.
• Dilute [^3H]DPCPX to 1.75 nM in assay buffer. This is a 2.5× solution. The final concentration in the assay is 0.7 nM. Calculate the concentration by counting two 5 ul aliquots. Membrane Preparation • Use 5 ug of membrane/well. Dilute membranes to 250 ug/ml in assay buffer. Treat with 20 ug/ml adenosine deaminase (ADA) for 15 minutes at room temperature to degrade endogenous adenosine. Membrane-Bead Mixture • Use 25 ug/well wheatgerm agglutinin-coated yttrium silicate SPA beads • Mix ADA-treated membranes and SPA beads together for 30 min prior to assay. Assay Assembly • Add in order to a Perkin-Elmer Optiplate-384: 10 ul of 5× compound, 20 ul of 2.5× [^3H]DPCPX, 20 ul membrane-bead mixture. Incubate for one hour at room temperature with agitation. • Include total binding (assay buffer+1% DMSO) and non-specific binding (DPCPX, 1 uM) wells. Counting and Calculations

The mark [1] stands for this setting: 0.25 μg of membranes from HEK293 cells expressing the human A2a receptor.
Where [2] appears, read: * assay run with 1 μg of membranes versus 0.25 μg, HEK293 cells expressing the human A2a receptor.

human A2a receptor, sequence (P29274 whole entry): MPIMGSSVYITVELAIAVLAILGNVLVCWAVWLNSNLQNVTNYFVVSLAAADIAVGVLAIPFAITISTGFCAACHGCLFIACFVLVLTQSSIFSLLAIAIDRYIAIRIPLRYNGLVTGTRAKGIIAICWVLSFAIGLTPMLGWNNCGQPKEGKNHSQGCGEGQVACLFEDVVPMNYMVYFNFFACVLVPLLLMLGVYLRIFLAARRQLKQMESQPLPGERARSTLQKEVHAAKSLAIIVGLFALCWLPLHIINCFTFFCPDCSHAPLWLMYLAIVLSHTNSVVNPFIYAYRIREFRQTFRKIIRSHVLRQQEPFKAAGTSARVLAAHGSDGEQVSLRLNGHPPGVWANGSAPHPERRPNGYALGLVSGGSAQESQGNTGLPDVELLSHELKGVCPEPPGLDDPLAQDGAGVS

As a reminder, the Ki is a dissociation constant, usually derived from enzyme kinetics or from competition with a known ligand. A lower Ki goes with higher affinity. In the case of `COc1cccc2c(C(=O)NC3CCc4ccccc4C3)nc(N)nc12` (centres unmarked) [Example 34, 2-amino-8-methoxy-N-[2-tetralin-2-yl]quinazoline-4-carboxamide], the Ki on human A2a receptor (setting [1]) was determined as 20 nM. Also, the “A2a selectivity (A2a A1 binding selectivity)” value (“A2a selectivity” below) on human A1 receptor stood at 46.
In the case of `COc1cccc2c(C(=O)N[C@H]3CCCc4cccnc43)nc(N)nc12` [Example 35, 2-amino-8-methoxy-N-[(8S)-5,6,7,8-tetrahydroquinolin-8-yl]quinazoline-4-carboxamide], at human A2a receptor (setting [1]), the Ki came out at 180 nM. Also, the “A2a selectivity” value on human A1 receptor worked out at 48.
In the case of `COc1cccc2c(C(=O)N[C@@H](CO)c3ccccc3)nc(N)nc12` [Example 36, 2-amino-N-[(1R)-2-hydroxy-1-phenyl-ethyl]-8-methoxy-quinazoline-4-carboxamide], the affinity at human A2a receptor (setting [1]), expressed as Ki, was 2.6 nM. Besides, on human A1 receptor, the “A2a selectivity” value worked out at 114.
Turning to `COc1cccc2c(C(=O)N[C@@H](CO)c3ccc4ccccc4n3)nc(N)nc12` [Example 37, 2-amino-N-[(1R)-2-hydroxy-1-(2-quinolyl)ethyl]-8-methoxy-quinazoline-4-carboxamide], affinity on human A2a receptor (setting [1]) was put at a Ki of 8.3 nM. The “A2a selectivity” value at human A1 receptor worked out at 32.
`COc1cccc2c(C(=O)NCc3ncccn3)nc(N)nc12` [Example 38, 2-amino-8-methoxy-N-(pyrimidin-2-ylmethyl)quinazoline-4-carboxamide]: the Ki at human A2a receptor (setting [1]) was found to be 43 nM. Also, at human A1 receptor, the “A2a selectivity” value is reported as 94.
On human A2a receptor (setting [1]), `COc1cccc2c(C(=O)NC(C)(C)c3ccccn3)nc(N)nc12` [Example 39, 2-amino-8-methoxy-N-[1-methyl-1-(2-pyridyl)ethyl]quinazoline-4-carboxamide] had an inhibitory constant (Ki) of 415 nM. The “A2a selectivity” value at human A1 receptor is 9.
The compound `COc1cccc2c(C(=O)NC3(c4ccccn4)CC3)nc(N)nc12` [Example 40, 2-amino-8-methoxy-N-[1-(2-pyridyl)cyclopropyl]quinazoline-4-carboxamide] registered a Ki on human A2a receptor (setting [1]) of 929 nM. For the same compound, on human A1 receptor, the “A2a selectivity” value is on record as 3.
Compound `COc1cccc2c(C(=O)NCc3ccccc3-c3cccnc3)nc(N)nc12` [Example 41, 2-amino-8-methoxy-N-[[2-(3-pyridyl)phenyl]methyl]quinazoline-4-carboxamide] yielded an inhibitory constant (Ki) at human A2a receptor (setting [2]) of 9.2 nM. For the same compound, the “A2a selectivity” value at human A1 receptor was 56.
In turn, `COc1cccc2c(C(=O)NCc3cccc4c3OC(F)(F)O4)nc(N)nc12` [Example 42, 2-amino-N-[(2,2,-difluoro-1,3-benzodioxol-4-yl)methyl]-8-methoxy-quinazoline-4-carboxamide] registered a Ki on human A2a receptor (setting [2]) of 5.3 nM. The “A2a selectivity” value at human A1 receptor worked out at 39.
In the case of `COc1cccc2c(C(=O)NCc3ccccc3-c3ccccn3)nc(N)nc12` [Example 43, 2-amino-8-methoxy-N-[[2-(2-pyridyl)phenyl]methyl]quinazoline-4-carboxamide], on human A2a receptor (setting [2]), the affinity corresponds to a Ki of 2.3 nM. For the same compound, the “A2a selectivity” value at human A1 receptor was 84.
`COc1cccc2c(C(=O)NCc3cccc(COc4ccccc4F)n3)nc(N)nc12` [Example 44, 2-amino-N-[[6-[(2-fluorophenoxy)methyl]-2-pyridyl]methyl]-8-methoxy-quinazoline-4-carboxamide] yielded a Ki at human A2a receptor (setting [1]) of 0.2 nM. The “A2a selectivity” value at human A1 receptor amounted to 531.
As to `COc1cccc2c(C(=O)NCc3cccc(COc4ccc(F)cc4)n3)nc(N)nc12` [Example 45, 2-amino-N-[[6-[(4-fluorophenoxy)methyl]-2-pyridyl]methyl]-8-methoxy-quinazoline-4-carboxamide], the Ki on human A2a receptor (setting [1]) worked out at 0.3 nM. Also, on human A1 receptor, the “A2a selectivity” value was found to be 230.
The matching figures for `Nc1nc(C(=O)NCc2cccc(COc3ccccn3)n2)c2cccc(F)c2n1` [Example 46, 2-amino-8-fluoro-N-[[6-(2-pyridyloxymethyl)-2-pyridyl]methyl]quinazoline-4-carboxamide]: 2.2 nM and 484.
Consider `N#Cc1ccc(OCc2cccc(CNC(=O)c3nc(N)nc4c(F)cccc34)n2)cc1` [Example 47, 2-amino-N-[[6-[(4-cyanophenoxy)methyl]-2-pyridyl]methyl]-8-fluoro-quinazoline-4-carboxamide], for which the affinity on human A2a receptor (setting [2]), expressed as Ki, was 3.8 nM. On human A1 receptor, the “A2a selectivity” value was determined as 36.
On human A2a receptor (setting [1]), `COc1cccc2c(C(=O)NCc3cccc(COC4CCCC4)n3)nc(N)nc12` [Example 48, 2-amino-N-[[6-(cyclopentoxymethyl)-2-pyridyl]methyl]-8-methoxy-quinazoline-4-carboxamide] returned a Ki of 0.5 nM. The “A2a selectivity” value at human A1 receptor is 447.
Take `COc1cccc2c(C(=O)NCc3cccc(COCC4CCCC4)n3)nc(N)nc12` [Example 49, 2-amino-N-[[6-(cyclopentylmethoxy-methyl)-2-pyridyl]methyl]-8-methoxy-quinazoline-4-carboxamide]: the Ki at human A2a receptor (setting [1]) is 0.5 nM. Further, the “A2a selectivity” value at human A1 receptor is on record as 251.
Compound `COc1cccc2c(C(=O)NCc3cccc(COCC4CC4)n3)nc(N)nc12` [Example 50, 2-amino-N-[[6-(cyclopropylmethoxy-methyl)-2-pyridyl]methyl]-8-methoxy-quinazoline-4-carboxamide] came in with a Ki on human A2a receptor (setting [1]) of 1.3 nM. Besides, at human A1 receptor, the “A2a selectivity” value is listed as 160.
For `COc1cccc2c(C(=O)NCc3cccc(COCC(C)C)n3)nc(N)nc12` [Example 51, 2-amino-N-[[6-(isobutoxymethyl)-2-pyridyl]methyl]-8-methoxy-quinazoline-4-carboxamide], in that order: 1.9 nM and 90.
In turn, `COc1cccc2c(C(=O)NCc3cccc(CO[C@H]4CCOC4)n3)nc(N)nc12` [Example 52, 2-amino-8-methoxy-N-[[6-[[(3S)-tetrahydrofuran-3-yl]oxymethyl]-2-pyridyl]methyl]quinazoline-4-carboxamide] came in with a Ki at human A2a receptor (setting [1]) of 1.1 nM. Besides, the “A2a selectivity” value at human A1 receptor is on record as 140.

The record behind these values is patent US10138212B2, “Aminoquinazoline compounds as A2A antagonist” (Merck Sharp & Dohme Corp., priority 2015, dated 2018).
